Laboratory results: ChEMBL document CHEMBL1143904, “Beta-lactam congeners of orlistat as inhibitors of fatty acid synthase” (Bioorg Med Chem Lett, 2008)
Calls of active or inactive are those of the source. The rule behind the calls is not given here.

assay: Inhibition of recombinant fatty acid synthase thioesterase domain by fluorogenic assay

IC50 | Activity | SMILES
39.2 µM |  | CCCCCCCCCCC[C@H](C[C@@H]1[C@@H](CCCCCC)C(=O)N1OCc1ccccc1)OC(=O)CNC=O
68.9 µM |  | CCCCCCCCCCC[C@@H](C[C@H]1[C@H](CCCCCC)C(=O)N1OCc1ccccc1)OC(=O)CNC=O
61.2 µM |  | CCCCCCCCCCC[C@@H](O)C[C@@H]1[C@@H](CCCCCC)C(=O)N1OCc1ccccc1
8.6 µM |  | CCCCCCCCCCC[C@@H](C[C@H]1[C@H](CCCCCC)C(=O)N1OCc1ccccc1)O[Si](C)(C)C(C)(C)C
97.4 µM |  | CCCCCCCCCCC[C@H](C[C@@H]1[C@@H](CCCCCC)C(=O)N1OCc1ccccc1)O[Si](C)(C)C(C)(C)C
86.8 µM |  | CCCCCCCCCCC[C@H](O)C[C@H]1[C@H](CCCCCC)C(=O)N1OCc1ccccc1

More lines, now with the values behind:

SMILES | IC50 | Activity
CCCCCC[C@@H]1C(=O)N(OCc2ccccc2)[C@H]1C[C@H](CCCCC)OC(=O)[C@@H](NC=O)C(C)C | 58.2 µM | 
CCCCCC[C@@H]1C(=O)N[C@H]1C[C@@H](O)CCCCC | 67.6 µM | 
CCCCCCCCCCC[C@H](C[C@H]1NC(=O)[C@@H]1CCCCCC)OC(=O)CNC=O |  | inactive
CCCCCC[C@@H]1C(=O)N(OCc2ccccc2)[C@H]1C[C@@H](O)CCCCC | 50.5 µM | 
CCCCCCCCCCC[C@@H](C[C@@H]1NC(=O)[C@H]1CCCCCC)OC(=O)CNC=O |  | inactive
